The text below walks through data of patent publication US10696693B2, “Fused imidazole derivatives as TGF-beta inhibitors” (Rigel Pharmaceuticals, Inc., priority 2014, dated 2020).

Molecules are shown by their SMILES. pIC50: −log10 of the molar value. Like-named read-outs stand apart in the source and are kept apart here. Bounds are passed on as bounds.

In one assay the test system is GDF8. As to the kind of experiment: AlphaScreen SureFire p-SMAD3 (Ser423/425) assay, GDF8-stimulated cells. It counts as cell-based. Conditions: Mus musculus. The method, boiled down:
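A SureFire AlphaScreen assay measured phosphorylation of endogenous SMAD-3 at Ser423/425 in cell lysates. Cells were treated with three-fold serially diluted compounds in DMSO for about 10 minutes, then stimulated with GDF8. After medium removal, cells were lysed in 1× Lysis Buffer (about 25 μL) with gentle shaking for 5-10 minutes.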
For orientation: In Alpha technology, singlet oxygen from a donor bead excites a nearby acceptor bead.

For the next assay, the system named is TGF-β. Description: AlphaScreen SureFire p-SMAD3 (Ser423/425) assay, TGF-β-stimulated cells. It counts as cell-based. The conditions noted are these: Mus musculus. Summed up:
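The p-SMAD-3 (Ser423/425) SureFire assay measured phosphorylation of endogenous SMAD-3 in cell lysates. Cells were plated overnight in collagen-coated plates, exposed to three-fold serially diluted compounds for about 10 minutes, then stimulated with TGFβ. Lysates (5 μL) received acceptor bead mix for 2 hours, then donor beads for 1½ hours before AlphaScreen reading.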

[1] abbreviates: MPC-11, p-SMAD3 (Ser423/425) AlphaScreen in cell lysate, MPC11, GDF8 stimulation, read-out: GDF8: inhibition of GDF8 signaling, GDF pSMAD (MPC11).
Setting [2] is: p-SMAD3 (Ser423/425) AlphaScreen in cell lysate, MPC-11, TGF-β stimulation, read-out: TGF-β: inhibition of TGF-β signaling, TGF-β pSMAD (MPC-11).
Setting [3] is: MPC-11, read-out: GDF8: inhibition of GDF8 signaling, GDF pSMAD (MPC11), p-SMAD3 (Ser423/425) AlphaScreen in cell lysate, GDF8 stimulation.
[4] abbreviates: MPC-11, read-out: TGF-β: inhibition of TGF-β signaling, TGF-β pSMAD (MPC-11), p-SMAD3 (Ser423/425) AlphaScreen in cell lysate, TGF-β stimulation.

For the compound `Cc1cccc(-c2nc3n(c2-c2ccc4nccnc4c2)CCC3)c1` [Compound 180, 6-(2-(m-tolyl)-6,7-dihydro-5H-pyrrolo[1,2-a]imidazol-3-yl)quinoxaline], the pIC50 is over 7.30 with GDF8 (setting [1]) and 6.00 to 7.00 in the assay on TGF-β (setting [2]).

On to `FC(F)(F)c1cccc(-c2nc3n(c2-c2ccc4[nH]ncc4c2)CCC3)c1` [Compound 181, 5-(2-(3-(trifluoromethyl)phenyl)-6,7-dihydro-5H-pyrrolo[1,2-a]imidazol-3-yl)-1H-indazole], for which the figures for the pIC50 in the assay with GDF8 (setting [1]) and in the assay with TGF-β (setting [2]) were 7.00 to 7.30 and 6.00 to 7.00, respectively.

On to `FC(F)(F)c1cccc(-c2nc3n(c2-c2ccc4cn[nH]c4c2)CCC3)c1` [Compound 182, 6-(2-(3-(trifluoromethyl)phenyl)-6,7-dihydro-5H-pyrrolo[1,2-a]imidazol-3-yl)-1H-indazole], for which the pIC50 was 7.00 to 7.30 in the assay on GDF8 (setting [1]) and 6.00 to 7.00 in the assay on TGF-β (setting [2]).

For `FC(F)(F)c1cccc(-c2nc3n(c2-c2ccc4ncsc4c2)CCC3)c1` [Compound 183, 6-(2-(3-(trifluoromethyl)phenyl)-6,7-dihydro-5H-pyrrolo[1,2-a]imidazol-3-yl)benzo[d]thiazole], the pIC50 with GDF8 (setting [1]) is 7.00 to 7.30; in the assay on TGF-β (setting [2]) it was 6.00 to 7.00.

On to `FC(F)(F)c1cccc(-c2nc3n(c2-c2ccc4nccnc4c2)CCC3)c1` [Compound 184, 6-(2-(3-(trifluoromethyl)phenyl)-6,7-dihydro-5H-pyrrolo[1,2-a]imidazol-3-yl)quinoxaline], for which the pIC50 is 7.00 to 7.30 with GDF8 (setting [1]) and 6.00 to 7.00 with TGF-β (setting [2]).

In the case of `COc1cccc(-c2nc3n(c2-c2ccc4[nH]ncc4c2)CCC3)c1` [Compound 185, 5-(2-(3-methoxyphenyl)-6,7-dihydro-5H-pyrrolo[1,2-a]imidazol-3-yl)-1H-indazole], the pIC50 with GDF8 (setting [3]) and in the assay on TGF-β (setting [4]) was 6.00 to 7.00 in each case.

For the compound `COc1cccc(-c2nc3n(c2-c2ccc4cn[nH]c4c2)CCC3)c1` [Compound 186, 6-(2-(3-methoxyphenyl)-6,7-dihydro-5H-pyrrolo[1,2-a]imidazol-3-yl)-1H-indazole], the pIC50 in the assay on GDF8 (setting [3]) is 7.00 to 7.30; in the assay on TGF-β (setting [4]) it was 6.00 to 7.00.

Take `COc1cccc(-c2nc3n(c2-c2ccc4ncsc4c2)CCC3)c1` [Compound 187, 6-(2-(3-methoxyphenyl)-6,7-dihydro-5H-pyrrolo[1,2-a]imidazol-3-yl)benzo[d]thiazole]: the pIC50 is 7.00 to 7.30 in the assay with GDF8 (setting [3]) and 6.00 to 7.00 with TGF-β (setting [4]).

Consider `COc1cccc(-c2nc3n(c2-c2ccc4nccnc4c2)CCC3)c1` [Compound 188, 6-(2-(3-methoxyphenyl)-6,7-dihydro-5H-pyrrolo[1,2-a]imidazol-3-yl)quinoxaline], for which the pIC50 with GDF8 (setting [3]) and with TGF-β (setting [4]) was 6.00 to 7.00 in each case.

As for `Clc1cccc(-c2nc3n(c2-c2ccc4[nH]ncc4c2)CCC3)c1` [Compound 189, 5-(2-(3-chlorophenyl)-6,7-dihydro-5H-pyrrolo[1,2-a]imidazol-3-yl)-1H-indazole], the pIC50 was 7.00 to 7.30 in the assay with GDF8 (setting [3]) and 6.00 to 7.00 with TGF-β (setting [4]).

On to `Clc1cccc(-c2nc3n(c2-c2ccc4cn[nH]c4c2)CCC3)c1` [Compound 190, 6-(2-(3-chlorophenyl)-6,7-dihydro-5H-pyrrolo[1,2-a]imidazol-3-yl)-1H-indazole], for which the pIC50 in the assay on GDF8 (setting [3]) was over 7.30; in the assay on TGF-β (setting [4]), 7.00 to 7.30.

As to `Clc1cccc(-c2nc3n(c2-c2ccc4ncsc4c2)CCC3)c1` [Compound 191, 6-(2-(3-chlorophenyl)-6,7-dihydro-5H-pyrrolo[1,2-a]imidazol-3-yl)benzo[d]thiazole], the results for the pIC50 in the assay with GDF8 (setting [3]) and with TGF-β (setting [4]) were over 7.30 and 6.00 to 7.00, respectively.

For the compound `Clc1cccc(-c2nc3n(c2-c2ccc4nccnc4c2)CCC3)c1` [Compound 192, 6-(2-(3-chlorophenyl)-6,7-dihydro-5H-pyrrolo[1,2-a]imidazol-3-yl)quinoxaline], the pIC50 with GDF8 (setting [3]) was 7.00 to 7.30; with TGF-β (setting [4]), 6.00 to 7.00.

Regarding `Fc1cccc(-c2nc3n(c2-c2ccc4[nH]ncc4c2)CCC3)c1` [Compound 193, 5-(2-(3-fluorophenyl)-6,7-dihydro-5H-pyrrolo[1,2-a]imidazol-3-yl)-1H-indazole], the pIC50 in the assay on GDF8 (setting [3]) is 6.00 to 7.00; in the assay with TGF-β (setting [4]), under 6.00.

For the compound `Fc1cccc(-c2nc3n(c2-c2ccc4cn[nH]c4c2)CCC3)c1` [Compound 194, 6-(2-(3-fluorophenyl)-6,7-dihydro-5H-pyrrolo[1,2-a]imidazol-3-yl)-1H-indazole], the pIC50 with GDF8 (setting [3]) is 6.00 to 7.00; with TGF-β (setting [4]) it was under 6.00.

Regarding `Fc1cccc(-c2nc3n(c2-c2ccc4ncsc4c2)CCC3)c1` [Compound 195, 6-(2-(3-fluorophenyl)-6,7-dihydro-5H-pyrrolo[1,2-a]imidazol-3-yl)benzo[d]thiazole], the pIC50 with GDF8 (setting [3]) and with TGF-β (setting [4]) was 6.00 to 7.00 in each case.

Take `Fc1cccc(-c2nc3n(c2-c2ccc4nccnc4c2)CCC3)c1` [Compound 196, 6-(2-(3-fluorophenyl)-6,7-dihydro-5H-pyrrolo[1,2-a]imidazol-3-yl)quinoxaline]: the pIC50 in the assay with GDF8 (setting [3]) was 6.00 to 7.00; in the assay with TGF-β (setting [4]), under 6.00.

As for `Fc1ccccc1-c1nc2n(c1-c1ccc3[nH]ncc3c1)CCC2` [Compound 197, 5-(2-(2-fluorophenyl)-6,7-dihydro-5H-pyrrolo[1,2-a]imidazol-3-yl)-1H-indazole], the values for the pIC50 in the assay with GDF8 (setting [1]) and in the assay on TGF-β (setting [2]) were 6.00 to 7.00 and under 6.00, respectively.

For `Fc1ccccc1-c1nc2n(c1-c1ccc3cn[nH]c3c1)CCC2` [Compound 198, 6-(2-(2-fluorophenyl)-6,7-dihydro-5H-pyrrolo[1,2-a]imidazol-3-yl)-1H-indazole], the pIC50 in the assay on GDF8 (setting [1]) and in the assay on TGF-β (setting [2]) was under 6.00 each time.

Turning to `Fc1ccccc1-c1nc2n(c1-c1ccc3ncsc3c1)CCC2` [Compound 199, 6-(2-(2-fluorophenyl)-6,7-dihydro-5H-pyrrolo[1,2-a]imidazol-3-yl)benzo[d]thiazole], the pIC50 with GDF8 (setting [1]) and in the assay with TGF-β (setting [2]) was 6.00 to 7.00 each time.

For the compound `Fc1ccccc1-c1nc2n(c1-c1ccc3nccnc3c1)CCC2` [Compound 200, 6-(2-(2-fluorophenyl)-6,7-dihydro-5H-pyrrolo[1,2-a]imidazol-3-yl)quinoxaline], the figures for the pIC50 in the assay on GDF8 (setting [1]) and in the assay on TGF-β (setting [2]) were 6.00 to 7.00 and under 6.00, respectively.

`Fc1ccc(-c2nc3n(c2-c2ccc4[nH]ncc4c2)CCC3)c(F)c1` [Compound 201, 5-(2-(2,4-difluorophenyl)-6,7-dihydro-5H-pyrrolo[1,2-a]imidazol-3-yl)-1H-indazole]: the pIC50 was over 7.30 in the assay with GDF8 (setting [1]) and 6.00 to 7.00 in the assay with TGF-β (setting [2]).

Regarding `Fc1ccc(-c2nc3n(c2-c2ccc4cn[nH]c4c2)CCC3)c(F)c1` [Compound 202, 6-(2-(2,4-difluorophenyl)-6,7-dihydro-5H-pyrrolo[1,2-a]imidazol-3-yl)-1H-indazole], the results for the pIC50 with GDF8 (setting [1]) and in the assay on TGF-β (setting [2]) were 7.00 to 7.30 and 6.00 to 7.00, respectively.

For `Fc1ccc(-c2nc3n(c2-c2ccc4ncsc4c2)CCC3)c(F)c1` [Compound 203, 6-(2-(2,4-difluorophenyl)-6,7-dihydro-5H-pyrrolo[1,2-a]imidazol-3-yl)benzo[d]thiazole], the pIC50 in the assay on GDF8 (setting [1]) is over 7.30; in the assay with TGF-β (setting [2]) it was 6.00 to 7.00.

With `Fc1ccc(-c2nc3n(c2-c2ccc4nccnc4c2)CCC3)c(F)c1` [Compound 204, 6-(2-(2,4-difluorophenyl)-6,7-dihydro-5H-pyrrolo[1,2-a]imidazol-3-yl)quinoxaline], the pIC50 in the assay with GDF8 (setting [1]) and with TGF-β (setting [2]) was 6.00 to 7.00 throughout.

On to `Fc1ccc(-c2nc3n(c2-c2ccc4[nH]ncc4c2)CCC3)cc1F` [Compound 205, 5-(2-(3,4-difluorophenyl)-6,7-dihydro-5H-pyrrolo[1,2-a]imidazol-3-yl)-1H-indazole], for which the pIC50 in the assay with GDF8 (setting [1]) and in the assay on TGF-β (setting [2]) was 6.00 to 7.00 each time.

Consider `Fc1ccc(-c2nc3n(c2-c2ccc4cn[nH]c4c2)CCC3)cc1F` [Compound 206, 6-(2-(3,4-difluorophenyl)-6,7-dihydro-5H-pyrrolo[1,2-a]imidazol-3-yl)-1H-indazole], for which the pIC50 in the assay on GDF8 (setting [1]) was 6.00 to 7.00; in the assay on TGF-β (setting [2]) it was under 6.00.

For the compound `Fc1ccc(-c2nc3n(c2-c2ccc4ncsc4c2)CCC3)cc1F` [Compound 207, 6-(2-(3,4-difluorophenyl)-6,7-dihydro-5H-pyrrolo[1,2-a]imidazol-3-yl)benzo[d]thiazole], the pIC50 in the assay on GDF8 (setting [1]) and with TGF-β (setting [2]) was 6.00 to 7.00 in each case.

Take `Fc1ccc(-c2nc3n(c2-c2ccc4nccnc4c2)CCC3)cc1F` [Compound 208, 6-(2-(3,4-difluorophenyl)-6,7-dihydro-5H-pyrrolo[1,2-a]imidazol-3-yl)quinoxaline]: the pIC50 in the assay on GDF8 (setting [1]) was 6.00 to 7.00; with TGF-β (setting [2]), under 6.00.

Take `Fc1cccc(-c2nc3n(c2-c2ccc4ncccc4c2)CCC3)c1` [Compound 209, 6-(2-(3-fluorophenyl)-6,7-dihydro-5H-pyrrolo[1,2-a]imidazol-3-yl)quinoline]: the pIC50 in the assay with GDF8 (setting [1]) was 6.00 to 7.00; with TGF-β (setting [2]), under 6.00.

Consider `Fc1ccccc1-c1nc2n(c1-c1ccc3ncccc3c1)CCC2` [Compound 210, 6-(2-(2-fluorophenyl)-6,7-dihydro-5H-pyrrolo[1,2-a]imidazol-3-yl)quinoline], for which the pIC50 is 6.00 to 7.00 with GDF8 (setting [1]) and under 6.00 with TGF-β (setting [2]).

Turning to `Fc1ccc(-c2nc3n(c2-c2ccc4ncccc4c2)CCC3)c(F)c1` [Compound 211, 6-(2-(2,4-difluorophenyl)-6,7-dihydro-5H-pyrrolo[1,2-a]imidazol-3-yl)quinoline], the pIC50 in the assay on GDF8 (setting [1]) and with TGF-β (setting [2]) was 6.00 to 7.00 in each case.
